Reference: paper PMC4467461, “Small-molecule activation of SERCA2a SUMOylation for the treatment of heart failure” (Nature Communications, 2015)

Biological target: T1, ubiquitin-activating enzyme (Ub E1) (Homo sapiens, UniProt P22314)
T1 sequence (P22314 1-1058): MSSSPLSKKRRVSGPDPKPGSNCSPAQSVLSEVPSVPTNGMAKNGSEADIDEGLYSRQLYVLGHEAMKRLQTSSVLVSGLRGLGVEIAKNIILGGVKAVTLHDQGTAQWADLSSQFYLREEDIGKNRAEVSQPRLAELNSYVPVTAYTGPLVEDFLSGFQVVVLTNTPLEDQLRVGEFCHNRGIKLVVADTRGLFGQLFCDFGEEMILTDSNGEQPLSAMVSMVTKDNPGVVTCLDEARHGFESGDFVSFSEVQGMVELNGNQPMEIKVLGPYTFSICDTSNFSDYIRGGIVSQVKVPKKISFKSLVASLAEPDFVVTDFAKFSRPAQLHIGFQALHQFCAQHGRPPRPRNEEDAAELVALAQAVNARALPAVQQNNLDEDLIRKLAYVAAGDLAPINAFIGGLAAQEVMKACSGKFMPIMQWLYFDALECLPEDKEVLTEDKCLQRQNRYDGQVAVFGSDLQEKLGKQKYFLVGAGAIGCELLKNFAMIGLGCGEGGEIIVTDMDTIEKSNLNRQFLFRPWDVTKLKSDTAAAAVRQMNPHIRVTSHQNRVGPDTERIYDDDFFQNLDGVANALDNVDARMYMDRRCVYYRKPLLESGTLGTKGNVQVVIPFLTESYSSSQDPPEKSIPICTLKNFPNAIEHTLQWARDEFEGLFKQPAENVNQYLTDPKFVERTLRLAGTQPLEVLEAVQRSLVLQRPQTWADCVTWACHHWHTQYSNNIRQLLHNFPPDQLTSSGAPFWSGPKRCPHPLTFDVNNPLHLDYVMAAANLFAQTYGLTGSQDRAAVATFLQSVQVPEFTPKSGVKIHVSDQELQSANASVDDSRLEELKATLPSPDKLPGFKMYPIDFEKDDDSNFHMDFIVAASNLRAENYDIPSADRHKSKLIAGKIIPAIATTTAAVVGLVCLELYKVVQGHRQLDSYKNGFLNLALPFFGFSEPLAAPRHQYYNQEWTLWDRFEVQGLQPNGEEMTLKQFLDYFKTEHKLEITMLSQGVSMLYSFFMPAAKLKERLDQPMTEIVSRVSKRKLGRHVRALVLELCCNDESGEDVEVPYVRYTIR
Assay: Ubiquitin-activating E1 enzyme activity (ATP hydrolysis and in vitro conjugation assays)
Assay type: biochemical
Conditions: at concentrations up to 100 μM
Protocol: Biochemical activity of SUMO-specific E1 enzymes was examined by ATPase assay and in-vitro gel-shifting assays. ATP hydrolysis activity of E1 enzymes was measured by using pyrophosphate assay kit (Abcam Inc.). E1 (0.05 μM), 0.25 μM E2, 12.5 μM SUMO-1 and 1 mM ATP with N106 or DMSO were used for the assays. The E1-thioester formation was analysed in reaction mixtures containing 0.05 μM E1, 12.5 μM SUMO-1 and 1 mM ATP with N106 or DMSO. The E1-dependent E2-SUMO-1 thioester formation was assessed using reaction containing 0.05 μM E1, 0.25 μM E2, 12.5 μM SUMO-1 and 1 mM ATP with N106 or DMSO. Assays were incubated at 37 °C for 30 min and were mixed with non-reducing sample buffer, and analysed in non-reducing condition. Western blotting using antibodies against SAE2 and Ubc9 detected the SUMO conjugations. […]
Supplementary Figure 5. […] Ubiquitin activating E1 enzyme activity was determined by ATP hydrolysis and in vitro conjugation assays. […] Inorganic pyrophosphate resulting from ATP hydrolysis in E1-catalazed ubiquitin activity was quantified with the use of a fluorogenic pyrophosphate assay kit. […] Thioester bond formation between ubiquitin specific E1 enzyme and ubiquitin were detected by Western blot analysis. […] E1-dependent thioester bond formation between E2 and ubiquitin was detected by Western blotting with anti-ubiquitin antibody. […]

COc1ccc(-c2nnc(Nc3nc4c(OC)cccc4s3)o2)cc1 [Compound N106, N-(4-methoxybenzo[d]thiazol-2-yl)-5-(4-methoxyphenyl)-1,3,4-oxadiazol-2-amine]
in-vitro activity of Ub E1 (ubiquitin activation, conjugation of ubiquitin to Ub E1, Ub E1-dependent conjugation to E2 cdc32): did not significantly stimulate
